# Results as given in patent US6737383B1, “Herbicidal oxadiazolidines” (priority 1999, dated 2004).
# What was measured:
# bedstraw = experiment: Test B pre/postemergence bedstraw; format: in vivo, Galium aparine
# Outline: (§1)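 Response is a visual 0-to-10 score relative to untreated plants, where 0 means no effect and 10 means complete control, taken twelve to sixteen days after application. Treatments went onto soil at planting and onto foliage of 1- to 4-leaf plants, using a surfactant-containing non-phytotoxic solvent.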
# blackgrass = experiment: Test B pre/postemergence blackgrass; format: in vivo, Alopecurus myosuroides
# Outline: as §1
# surinam grass = experiment: Test B pre/postemergence surinam grass; format: in vivo, Brachiaria decumbens
# Outline: as §1
# cocklebur = experiment: Test B pre/postemergence cocklebur; format: in vivo, Xanthium strumarium
# Outline: as §1
# giant foxtail = experiment: Test B pre/postemergence giant foxtail; format: in vivo, Setaria faberii
# Outline: as §1
# morningglory = experiment: Test B pre/postemergence morningglory; format: in vivo, Ipomoea hederacea
# Outline: as §1
# pigweed = experiment: Test B pre/postemergence pigweed; format: in vivo, Amaranthus retroflexus
# Outline: as §1
# rape = experiment: Test B pre/postemergence rape; format: in vivo, Brassica napus
# Outline: as §1
# soybean = experiment: Test B pre/postemergence soybean; format: in vivo, Glycine max
# Outline: as §1
# sugar beet = experiment: Test B pre/postemergence sugar beet; format: in vivo, Beta vulgaris
# Outline: as §1
# wheat = experiment: Test B pre/postemergence wheat; format: in vivo, Triticum aestivum
# Outline: as §1
# wild oat = experiment: Test B pre/postemergence wild oat; format: in vivo, Avena fatua
# Outline: as §1
# purple nutsedge = experiment: Test B pre/postemergence purple nutsedge; format: in vivo, Cyperus rotundus
# Outline: as §1
# smallflower flatsedge = experiment: Test B flood test smallflower flatsedge; format: in vivo, Cyperus difformis
# Outline: (§2)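 Read-out is a visual response score from 0 (no effect) to 10 (complete control), assigned by comparison with untreated controls. Treatment was applied at the 2-leaf stage, and plants stayed in the greenhouse for twelve to sixteen days before scoring.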
# duck salad = experiment: Test B flood test duck salad; format: in vivo, Heteranthera limosa
# Outline: as §2
# bamyardgrass = experiment: Test B flood test barnyardgrass; format: in vivo, Echinochloa crus-galli
# Outline: as §2
# [1] = Preemergence, Rate 62 g/ha, scale of 0 to 10 where 0 is no effect and 10 is complete control
# [2] = Preemergence, Rate 250 g/ha, scale of 0 to 10 where 0 is no effect and 10 is complete control
# [3] = Preemergence, Rate 500 g/ha, scale of 0 to 10 where 0 is no effect and 10 is complete control
# [4] = Rate 62 g/ha, Postemergence, scale of 0 to 10 where 0 is no effect and 10 is complete control
# [5] = Rate 125 g/ha, Postemergence, scale 0 to 10
# [6] = Rate 125 g/ha, Preemergence, scale of 0 to 10 where 0 is no effect and 10 is complete control
# [7] = Rate 500 g/ha, Postemergence, scale 0 to 10
# [8] = Rate 62 g/ha, headed Pre-emergence (flood test species), scale 0 to 10 (0 no effect, 10 complete control)
# [9] = Rate 125 g/ha, Pre-emergence, flood test species, scale 0 to 10 where 0 is no effect and 10 is complete control
# [10] = Rate 250 g/ha, Pre-emergence, flood-test species, scale 0 to 10, 0 is no effect, 10 is complete control
# [11] = Rate 500 g/ha, Pre-emergence, flood test species, scale 0 to 10 (0 no effect, 10 complete control)
smiles,measurement,setting,value
C#CCn1c(=O)on(C(=O)N(c2ccc(F)cc2)C(C)C)c1=O [Compound 212],Bedstraw plant response rating,bedstraw; [1],0
same,Bedstraw plant response rating,bedstraw; [2],0
same,"Plant response rating, Bedstraw",bedstraw; [3],10
same,Bedstraw plant response rating,bedstraw; [4],0
same,Bedstraw plant response rating,bedstraw; [5],0
same,Bedstraw plant response rating,bedstraw; [6],0
same,"Plant response rating (0 to 10; 0 is no effect, 10 is complete control), Bedstraw","bedstraw; Rate 250 g/ha, Postemergence",2
same,Bedstraw plant response rating,bedstraw; [7],7
same,Blackgrass plant response rating,blackgrass; [1],4
same,Blackgrass plant response rating,blackgrass; [2],7
same,"Plant response rating, Blackgrass",blackgrass; [3],9
same,Blackgrass plant response rating,blackgrass; [4],6
same,Blackgrass plant response rating,blackgrass; [5],6
same,Blackgrass plant response rating,blackgrass; [6],4
same,"Plant response rating (0 to 10; 0 is no effect, 10 is complete control), Blackgrass","blackgrass; Rate 250 g/ha, Postemergence",6
same,Blackgrass plant response rating,blackgrass; [7],7
same,B. signalgrass plant response rating,surinam grass; [1],0
same,B. signalgrass plant response rating,"surinam grass; Preemergence, Rate 250 g/ha, scale 0 to 10, 0 is no effect, 10 is complete control",5
same,"Plant response rating, B. signalgrass",surinam grass; [3],5
same,B. signalgrass plant response rating,surinam grass; [4],2
same,B. signalgrass plant response rating,"surinam grass; Rate 125 g/ha, Postemergence, scale 0 (no effect) to 10 (complete control)",4
same,B. signalgrass plant response rating,surinam grass; [6],1
same,"Plant response rating (0 to 10; 0 is no effect, 10 is complete control), B. signalgrass","surinam grass; Rate 250 g/ha, Postemergence",7
same,B. signalgrass plant response rating,"surinam grass; Rate 500 g/ha, Postemergence, scale 0 to 10, 0 no effect, 10 complete control",7
same,Cocklebur plant response rating,cocklebur; [1],0
same,Cocklebur plant response rating,cocklebur; [2],0
same,"Plant response rating, Cocklebur",cocklebur; [3],0
same,Cocklebur plant response rating,cocklebur; [4],2
same,Cocklebur plant response rating,cocklebur; [5],2
same,"Plant response rating (0 to 10; 0 is no effect, 10 is complete control), Cocklebur","cocklebur; Rate 250 g/ha, Postemergence",2
same,Cocklebur plant response rating,cocklebur; [7],5
same,Giant foxtail plant response rating,giant foxtail; [1],2
same,Giant foxtail plant response rating,giant foxtail; [2],9
same,"Plant response rating, Giant foxtail",giant foxtail; [3],10
same,Giant foxtail plant response rating,giant foxtail; [4],4
same,Giant foxtail plant response rating,giant foxtail; [5],6
same,Giant foxtail plant response rating,giant foxtail; [6],4
same,"Plant response rating (0 to 10; 0 is no effect, 10 is complete control), Giant foxtail","giant foxtail; Rate 250 g/ha, Postemergence",6
same,Giant foxtail plant response rating,giant foxtail; [7],9
same,Morningglory plant response rating,morningglory; [1],0
same,Morningglory plant response rating,morningglory; [2],0
same,"Plant response rating, Morningglory",morningglory; [3],0
same,Morningglory plant response rating,morningglory; [4],2
same,Morningglory plant response rating,morningglory; [5],3
same,Morningglory plant response rating,morningglory; [6],0
same,"Plant response rating (0 to 10; 0 is no effect, 10 is complete control), Morningglory","morningglory; Rate 250 g/ha, Postemergence",4
same,Morningglory plant response rating,morningglory; [7],8
same,Redroot pigweed plant response rating,pigweed; [1],9
same,Redroot pigweed plant response rating,pigweed; [2],10
same,"Plant response rating, Redroot pigweed",pigweed; [3],10
same,Redroot pigweed plant response rating,pigweed; [4],0
same,Redroot pigweed plant response rating,pigweed; [5],5
same,Redroot pigweed plant response rating,pigweed; [6],9
same,Redroot pigweed plant response rating,pigweed; [7],7
same,Rape plant response rating,rape; [1],0
same,Rape plant response rating,rape; [2],6
same,"Plant response rating, Rape",rape; [3],8
same,Rape plant response rating,rape; [4],0
same,Rape plant response rating,rape; [5],0
same,Rape plant response rating,rape; [6],0
same,"Plant response rating (0 to 10; 0 is no effect, 10 is complete control), Rape","rape; Rate 250 g/ha, Postemergence",0
same,Rape plant response rating,rape; [7],3
same,Soybean plant response rating,soybean; [1],0
same,Soybean plant response rating,soybean; [2],0
same,"Plant response rating, Soybean",soybean; [3],0
same,Soybean plant response rating,soybean; [4],1
same,Soybean plant response rating,soybean; [5],2
same,Soybean plant response rating,soybean; [6],0
same,"Plant response rating (0 to 10; 0 is no effect, 10 is complete control), Soybean","soybean; Rate 250 g/ha, Postemergence",3
same,Soybean plant response rating,soybean; [7],4
same,Sugarbeets plant response rating,sugar beet; [1],0
same,Sugarbeets plant response rating,sugar beet; [2],5
same,"Plant response rating, Sugarbeets",sugar beet; [3],8
same,Sugarbeets plant response rating,sugar beet; [4],0
same,Sugarbeets plant response rating,sugar beet; [5],0
same,Sugarbeets plant response rating,sugar beet; [6],5
same,"Plant response rating (0 to 10; 0 is no effect, 10 is complete control), Sugarbeets","sugar beet; Rate 250 g/ha, Postemergence",0
same,Sugarbeets plant response rating,sugar beet; [7],5
same,Wheat plant response rating,wheat; [1],0
same,Wheat plant response rating,wheat; [2],5
same,"Plant response rating, Wheat",wheat; [3],7
same,Wheat plant response rating,wheat; [4],0
same,Wheat plant response rating,wheat; [5],0
same,Wheat plant response rating,wheat; [6],0
same,"Plant response rating (0 to 10; 0 is no effect, 10 is complete control), Wheat","wheat; Rate 250 g/ha, Postemergence",0
same,Wild oats plant response rating,wild oat; [1],0
same,Wild oats plant response rating,wild oat; [2],3
same,"Plant response rating, Wild oats",wild oat; [3],7
same,Wild oats plant response rating,wild oat; [4],0
same,Wild oats plant response rating,wild oat; [5],0
same,"Plant response rating (0 to 10; 0 is no effect, 10 is complete control), Wild oats","wild oat; Rate 250 g/ha, Postemergence",0
same,Nutsedge plant response rating,purple nutsedge; [1],0
same,Nutsedge plant response rating,purple nutsedge; [2],0
same,"Plant response rating, Nutsedge",purple nutsedge; [3],0
same,Nutsedge plant response rating,purple nutsedge; [4],0
same,Nutsedge plant response rating,purple nutsedge; [5],0
same,Nutsedge plant response rating,purple nutsedge; [6],0
same,"Plant response rating (0 to 10; 0 is no effect, 10 is complete control), Nutsedge","purple nutsedge; Rate 250 g/ha, Postemergence",0
same,Nutsedge plant response rating,purple nutsedge; [7],0
same,S. Flatsedge plant response rating,smallflower flatsedge; [8],0
same,S. Flatsedge plant response rating,smallflower flatsedge; [9],0
same,S. Flatsedge plant response rating,smallflower flatsedge; [10],0
same,S. Flatsedge plant response rating,smallflower flatsedge; [11],0
same,Ducksalad plant response rating,duck salad; [8],0
same,Ducksalad plant response rating,duck salad; [9],0
same,Ducksalad plant response rating,duck salad; [10],0
same,Ducksalad plant response rating,duck salad; [11],2
same,Barnyardgrass plant response rating,bamyardgrass; [8],0
same,Barnyardgrass plant response rating,bamyardgrass; [9],0
same,Barnyardgrass plant response rating,bamyardgrass; [10],0
same,Barnyardgrass plant response rating,bamyardgrass; [11],0
